Measured values: patent US8058475B2, “Substituted cyclohexylmethyl compounds” (Gruenenthal GmbH, priority 2005, dated 2011)
Where two headings read alike, the source gives them in different places.

Target: human μ-opiate receptor (Homo sapiens, UniProt P35372)
Test: Affinity for the human μ-opiate receptor ([3H]-naloxone displacement, SPA, CHO-K1 membrane preparation)
Format: binding
Details: for inhibition at 1 µM: read-out: μ-Opioid receptor, % inhibition [1 μM]; for Ki: read-out: μ-Opioid receptor, Ki
[1] = 1 μM test substance, inhibition of specific [3H]-naloxone binding

Sequence of human μ-opiate receptor (P35372 whole entry): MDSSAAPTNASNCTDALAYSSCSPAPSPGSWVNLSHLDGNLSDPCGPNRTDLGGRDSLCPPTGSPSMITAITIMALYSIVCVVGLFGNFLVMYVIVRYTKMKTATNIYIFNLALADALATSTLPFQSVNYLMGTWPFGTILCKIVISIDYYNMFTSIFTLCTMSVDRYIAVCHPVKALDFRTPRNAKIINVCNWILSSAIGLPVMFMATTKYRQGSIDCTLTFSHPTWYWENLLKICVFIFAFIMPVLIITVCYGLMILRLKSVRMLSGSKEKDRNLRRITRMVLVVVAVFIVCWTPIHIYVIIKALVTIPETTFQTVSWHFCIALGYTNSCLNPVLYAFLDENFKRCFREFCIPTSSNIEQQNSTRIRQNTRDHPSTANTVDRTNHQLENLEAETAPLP

Compound | Ki [nM] | inhibition at 1 µM [%] | μ-Opioid receptor, % inhibition [1 μM] (1 µM) [%] | other results
4-((dimethylamino)(phenyl)methyl)-1-(4-fluoro-3-methylphenyl)cyclohexanol [compound 150] |  |  |  | μ-Opioid receptor, % inhibition [1 μM] [1]: 74%
COC(=O)C(Cc1c[nH]c2ccccc12)NC1CCC(C(c2ccccc2)N(C)C)CC1 (single isomer, unassigned) [compound 174, methyl 2-(4-((dimethylamino)(phenyl)methyl)cyclohexylamino)-3-(1H-indol-3-yl)propanoate] | 4.9 |  |  | inhibition at 1 µM [1]: 95%
COC(=O)C(Cc1c[nH]c2ccccc12)NC1CCC(C(c2ccccc2)N(C)C)CC1 (single isomer, unassigned) [compound 175, methyl 2-(4-((dimethylamino)(phenyl)methyl)cyclohexylamino)-3-(1H-indol-3-yl)propanoate] | 11 |  |  | μ-Opioid receptor, % inhibition [1 μM] (1 μM test substance, inhibition of specific [3H]-naloxone binding, 1 µM): 86%
CN(C)C(CCc1ccccc1)C1CCC(NC(=O)c2ccc(F)c(C(F)(F)F)c2)CC1 (single isomer, unassigned) [compound 210, N-[4-(1-dimethylamino-3-phenyl-propyl)-cyclohexyl]-4-fluoro-3-trifluoromethyl-benzamide] | 24 | 92 |  | 
CC(Oc1ccccc1)C(=O)NC1CCC(C(c2cccc(F)c2)N(C)C)CC1 (single isomer, unassigned) [compound 215, N-{4-[dimethylamino-(3-fluoro-phenyl)-methyl]-cyclohexyl}-2-phenoxy-propionamide] | 34 | 90 |  | 
CC(Oc1ccccc1)C(=O)NC1CCC(C(c2cccc(F)c2)N(C)C)CC1 (single isomer, unassigned) [compound 222, N-{4-[dimethylamino-(3-fluoro-phenyl)-methyl]-cyclohexyl}-2-phenoxy-propionamide] | 20 |  | 88 | 
CN(C)C(CCc1ccccc1)C1CCC(NC(=O)c2ccc(F)c(C(F)(F)F)c2)CC1 (single isomer, unassigned) [compound 227, N-[4-(1-dimethylamino-3-phenyl-propyl)-cyclohexyl]-4-fluoro-3-trifluoromethyl-benzamide] | 58 |  | 87 | 
CN(C)C(c1ccccc1)C1CCC(NC(=O)CC(C)(C)C)CC1 (single isomer, unassigned) [compound 228, N-[4-(dimethylamino-phenyl-methyl)-cyclohexyl]-3,3-dimethyl-butyramide] | 19 | 87 |  | 
CCC(C(=O)NC1CCC(C(c2ccccc2)N(C)C)CC1)c1ccccc1 (single isomer, unassigned) [compound 234, N-[4-(dimethylamino-phenyl-methyl)-cyclohexyl]-2-phenyl-butyramide] | 46 | 84 |  | 
CN(C)C(c1ccccc1)C1CCC(NC(=O)c2cccs2)CC1 (single isomer, unassigned) [compound 245, thiophene-2-carboxylic acid [4-(dimethylamino-phenyl-methyl)-cyclohexyl]-amide] | 66 | 82 |  | 
CN(C)C(c1ccccc1)C1CCC(NC(=O)CC(C)(C)C)CC1 (single isomer, unassigned) [compound 246, N-[4-(dimethylamino-phenyl-methyl)-cyclohexyl]-3,3-dimethyl-butyramide] | 39 |  | 82 | 
CN(C)C(c1ccccc1)C1CCC(NC(=O)c2cccs2)CC1 (single isomer, unassigned) [compound 249, thiophene-2-carboxylic acid [4-(dimethylamino-phenyl-methyl)-cyclohexyl]-amide] | 64 |  | 81 | 
CCC(C(=O)NC1CCC(C(c2ccccc2)N(C)C)CC1)c1ccccc1 (single isomer, unassigned) [compound 250, N-[4-(dimethylamino-phenyl-methyl)-cyclohexyl]-2-phenyl-butyramide] | 36 |  | 81 | 
CN(C)C(c1ccccc1)C1CCC(CNC(=O)c2ccc(F)c(F)c2)CC1 (single isomer, unassigned) [compound 294, N-[4-(dimethylamino-phenyl-methyl)-cyclohexylmethyl]-3,4-difluoro-benzamide] | 8.3 | 101 |  | 
Cc1ccccc1C(=O)NCC1CCC(C(c2ccccc2)N(C)C)CC1 (single isomer, unassigned) [compound 317, N-[4-(dimethylamino-phenyl-methyl)-cyclohexylmethyl]-2-methyl-benzamide] | 29 | 95 |  | 
CN(C)C(c1cccc(F)c1)C1CCC(CNC(=O)Cc2ccccc2)CC1 (single isomer, unassigned) [compound 319, N-{4-[dimethylamino-(3-fluoro-phenyl)-methyl]-cyclohexylmethyl}-2-phenyl-acetamide] | 15 | 95 |  | 

Compound | Ki [nM] | inhibition at 1 µM [%] | μ-Opioid receptor, % inhibition [1 μM] (1 µM) [%] | other results
Cc1ccccc1C(=O)NCC1CCC(C(c2ccccc2)N(C)C)CC1 (single isomer, unassigned) [compound 325, N-[4-(dimethylamino-phenyl-methyl)-cyclohexylmethyl]-2-methyl-benzamide] | 34 |  | 94 | 
CN(C)C(c1ccccc1)C1CCC(CNC(=O)c2cccc(C(F)(F)F)c2)CC1 (single isomer, unassigned) [compound 326, N-[4-(dimethylamino-phenyl-methyl)-cyclohexylmethyl]-3-trifluoromethyl-benzamide] | 11 | 94 |  | 
CC(Oc1ccccc1)C(=O)NCC1CCC(C(c2cccc(F)c2)N(C)C)CC1 (single isomer, unassigned) [compound 332, N-{4-[dimethylamino-(3-fluoro-phenyl)-methyl]-cyclohexylmethyl}-2-phenoxy-propionamide] | 20 | 93 |  | 
CN(C)C(c1ccccc1)C1CCC(CNC(=O)c2cccc(C(F)(F)F)c2)CC1 (single isomer, unassigned) [compound 333, N-[4-(dimethylamino-phenyl-methyl)-cyclohexylmethyl]-3-trifluoromethyl-benzamide] | 17 |  | 92 | 
CN(C)C(c1cccc(F)c1)C1CCC(CNC(=O)c2cccs2)CC1 (single isomer, unassigned) [compound 334, thiophene-2-carboxylic acid {4-[dimethylamino-(3-fluoro-phenyl)-methyl]-cyclohexylmethyl}-amide] | 62 | 92 |  | 
CN(C)C(c1ccc(Cl)cc1)C1CCC(CNC(=O)c2csc3ccccc23)CC1 (single isomer, unassigned) [compound 336, benzo[b]thiophene-3-carboxylic acid {4-[(4-chloro-phenyl)-dimethylamino-methyl]-cyclohexylmethyl}-amide] | 39 | 92 |  | 
CN(C)C(c1cccc(F)c1)C1CCC(CNC(=O)c2cccs2)CC1 (single isomer, unassigned) [compound 340, thiophene-2-carboxylic acid {4-[dimethylamino-(3-fluoro-phenyl)-methyl]-cyclohexylmethyl}-amide] | 55 |  | 91 | 
CC(Oc1ccccc1)C(=O)NCC1CCC(C(c2cccc(F)c2)N(C)C)CC1 (single isomer, unassigned) [compound 341, N-{4-[dimethylamino-(3-fluoro-phenyl)-methyl]-cyclohexylmethyl}-2-phenoxy-propionamide] | 13 |  |  | 
CCC(C)C(=O)NCC1CCC(C(c2cccc(F)c2)N(C)C)CC1 (single isomer, unassigned) [compound 342, N-{4-[dimethylamino-(3-fluoro-phenyl)-methyl]-cyclohexylmethyl}-2-methyl-butyramide] | 28 | 90 |  | 
CN(C)C(c1cccc(F)c1)C1CCC(CNC(=O)Cc2ccccc2)CC1 (single isomer, unassigned) [compound 348, N-{4-[dimethylamino-(3-fluoro-phenyl)-methyl]-cyclohexylmethyl}-2-phenyl-acetamide] | 30 |  | 89 | 
CN(C)C(c1ccccc1)C1CCC(CNC(=O)c2ccc(F)c(F)c2)CC1 (single isomer, unassigned) [compound 357, N-[4-(dimethylamino-phenyl-methyl)-cyclohexylmethyl]-3,4-difluoro-benzamide] | 60 |  | 86 | 
CN(C)C(c1ccccc1)C1CCC(CNC(=O)c2cccnc2Oc2ccc(Cl)cc2)CC1 (single isomer, unassigned) [compound 360, 2-(4-chloro-phenoxy)-N-[4-(dimethylamino-phenyl-methyl)-cyclohexylmethyl]-nicotinamide] | 35 | 86 |  | 
CN(C)C(c1ccc(Cl)cc1)C1CCC(CNC(=O)c2csc3ccccc23)CC1 (single isomer, unassigned) [compound 372, benzo[b]thiophene-3-carboxylic acid {4-[(4-chloro-phenyl)-dimethylamino-methyl]-cyclohexylmethyl}-amide] | 33 |  | 84 | 
CCC(C)C(=O)NCC1CCC(C(c2cccc(F)c2)N(C)C)CC1 (single isomer, unassigned) [compound 378, N-{4-[dimethylamino-(3-fluoro-phenyl)-methyl]-cyclohexylmethyl}-2-methyl-butyramide] | 55 |  | 83 | 
CN(C)C(c1ccccc1)C1CCC(CNC(=O)c2cccnc2Oc2ccc(Cl)cc2)CC1 (single isomer, unassigned) [compound 383, 2-(4-chloro-phenoxy)-N-[4-(dimethylamino-phenyl-methyl)-cyclohexylmethyl]-nicotinamide] | 86 |  | 83 | 
